Reference: the NIST ThermoML archive (doi:10.1021/je020196d)
Numbers after ± are expanded uncertainties.

Legend:
[1] = refractive index (Na D-line) (dimensionless); conditions: 293.15 K; 101.33 kPa; Liquid; Standard Abbe refractometry
[2] = 293.15 K; 101.33 kPa; Liquid
[3] = activity coefficient (dimensionless); of the first substance listed, at infinite dilution; xn = mol fraction of the nth substance listed; conditions: Liquid, x1 = 0

Compound | refractive index [1] | mass density [2] [kg/m3] | activity coefficient ([3]; 323.15 K, Chromatography) | activity coefficient ([3]; 333.15 K, Chromatography) | activity coefficient ([3]; 343.15 K, Chromatography) | activity coefficient ([3]; 353.15 K, Chromatography) | activity coefficient ([3]; 363.15 K, Chromatography) | activity coefficient ([3]; 373.1 K, Chromatography) | activity coefficient ([3]; 383.15 K, Chromatography) | activity coefficient ([3]; 393.15 K, Chromatography) | further results
CCCCCCCCCC [decane] | 1.4113 ± 0.0007 | 730.2 ± 5 |  |  |  |  |  |  |  |  | 
CCCCCCCCCC [decane] + OCCOCCOCCO |  |  | 252 ± 12 | 219 ± 10 | 196 ± 9.3 | 162 ± 7.6 | 141 ± 6.6 | 125 ± 5.9 | 107 ± 5 | 95.6 ± 4.5 | 
CCCCCCCCCC [decane] + OCCOCCOCCOCCO |  |  |  | 123 ± 5.8 |  | 87.8 ± 4.1 | 75.1 ± 3.5 | 64.4 ± 3 | 55.2 ± 2.6 | 51.3 ± 2.4 | activity coefficient ([3]; 403.15 K, Chromatography): 42.9 ± 2
CCCCCCC [heptane] | 1.3878 ± 0.0007 | 683.5 ± 5 |  |  |  |  |  |  |  |  | 
CCCCCCC [heptane] + OCCOCCOCCO |  |  | 93.3 ± 4.4 | 82.7 ± 3.9 | 71.9 ± 3.4 | 62.7 ± 2.9 | 55.3 ± 2.6 | 50.2 ± 2.3 | 44.3 ± 2.1 | 40.6 ± 1.9 | 
CCCCCCC [heptane] + OCCOCCOCCOCCO |  |  |  | 50.2 ± 2.3 |  | 37.6 ± 1.7 | 32.1 ± 1.5 | 29.8 ± 1.4 | 26.1 ± 1.2 | 23.1 ± 1.1 | activity coefficient ([3]; 403.15 K, Chromatography): 20.8 ± 0.96
CCCCCCCCC [nonane] | 1.4057 ± 0.0007 | 717.8 ± 5 |  |  |  |  |  |  |  |  | 
CCCCCCCCC [nonane] + OCCOCCOCCO |  |  | 183 ± 8.6 | 156 ± 7.4 | 140 ± 6.6 | 119 ± 5.6 | 103 ± 4.8 | 93 ± 4.4 | 81.4 ± 3.8 | 73.9 ± 3.5 | 
CCCCCCCCC [nonane] + OCCOCCOCCOCCO |  |  |  | 92.3 ± 4.3 |  | 64.7 ± 3 | 57.4 ± 2.7 | 49.3 ± 2.3 | 42.9 ± 2 | 39.7 ± 1.8 | activity coefficient ([3]; 403.15 K, Chromatography): 34.1 ± 1.6
CCCCCCCC [octane] + OCCOCCOCCOCCO |  |  |  |  |  |  |  |  |  |  | activity coefficient ([3]; 333.15 K): 68.1 ± 6.4; activity coefficient ([3]; 353.15 K): 49.5 ± 4.6; activity coefficient ([3]; 363.15 K): 43.2 ± 4; activity coefficient ([3]; 373.1 K): 37.5 ± 3.5; activity coefficient ([3]; 383.15 K): 32.4 ± 3; activity coefficient ([3]; 393.15 K): 31.4 ± 2.9; activity coefficient ([3]; 403.15 K): 25.8 ± 2.4
Cc1ccccc1 [toluene] | 1.4962 ± 0.0007 | 866.7 ± 5 |  |  |  |  |  |  |  |  | 
Cc1ccccc1 [toluene] + OCCOCCOCCO |  |  | 7.11 ± 0.33 | 6.8 ± 0.31 | 6.51 ± 0.3 | 6.25 ± 0.29 | 5.99 ± 0.27 | 5.85 ± 0.27 | 5.56 ± 0.25 | 5.51 ± 0.25 | 
Cc1ccccc1 [toluene] + OCCOCCOCCOCCO |  |  |  | 4.5 ± 0.21 |  | 4.02 ± 0.18 | 3.85 ± 0.18 | 3.62 ± 0.16 | 3.46 ± 0.16 | 3.37 ± 0.15 | activity coefficient ([3]; 403.15 K, Chromatography): 3.21 ± 0.15

More lines, main results first:

refractive index [1] | mass density [2] [kg/m3] | activity coefficient ([3]; 323.15 K, Chromatography) | activity coefficient ([3]; 333.15 K, Chromatography) | activity coefficient ([3]; 343.15 K, Chromatography) | activity coefficient ([3]; 353.15 K, Chromatography) | activity coefficient ([3]; 363.15 K, Chromatography) | activity coefficient ([3]; 373.1 K, Chromatography) | activity coefficient ([3]; 383.15 K, Chromatography) | activity coefficient ([3]; 393.15 K, Chromatography) | Compound | further results
1.5015 ± 0.0007 | 878.3 ± 5 |  |  |  |  |  |  |  |  | c1ccccc1 [benzene] | 
 |  | 4.62 ± 0.21 | 4.38 ± 0.2 | 4.26 ± 0.19 | 4.1 ± 0.19 | 3.97 ± 0.18 | 3.92 ± 0.18 | 3.82 ± 0.17 | 3.75 ± 0.17 | c1ccccc1 [benzene] + OCCOCCOCCO | 
 |  |  | 2.99 ± 0.14 |  | 2.73 ± 0.12 | 2.65 ± 0.12 | 2.5 ± 0.11 | 2.41 ± 0.11 | 2.37 ± 0.11 | c1ccccc1 [benzene] + OCCOCCOCCOCCO | activity coefficient ([3]; 403.15 K, Chromatography): 2.27 ± 0.1
1.4955 ± 0.0007 | 867.4 ± 5 |  |  |  |  |  |  |  |  | CCc1ccccc1 [ethylbenzene] | 
 |  | 10.9 ± 0.5 | 10.3 ± 0.47 | 9.73 ± 0.45 | 9.1 ± 0.42 | 8.72 ± 0.4 | 8.39 ± 0.38 | 7.94 ± 0.36 | 7.72 ± 0.35 | CCc1ccccc1 [ethylbenzene] + OCCOCCOCCO | 
 |  |  | 6.39 ± 0.29 |  | 5.63 ± 0.26 | 5.31 ± 0.24 | 5 ± 0.23 | 4.73 ± 0.22 | 4.58 ± 0.21 | CCc1ccccc1 [ethylbenzene] + OCCOCCOCCOCCO | activity coefficient ([3]; 403.15 K, Chromatography): 4.35 ± 0.2
1.3975 ± 0.0007 | 702.6 ± 5 |  |  |  |  |  |  |  |  | CCCCCCCC [octane] | 
 |  | 129 ± 6.1 | 113 ± 5.3 | 99.5 ± 4.7 | 86.9 ± 4.1 | 75.8 ± 3.5 | 68.7 ± 3.2 | 60.5 ± 2.8 | 56.7 ± 2.6 | CCCCCCCC [octane] + OCCOCCOCCO | 
1.4556 ± 0.0007 | 1127.8 ± 5 |  |  |  |  |  |  |  |  | OCCOCCOCCO [triethylene glycol] | 
